Results as given in patent publication US20100168170A1, “Piperidinones Useful in the Treatment of Inflammation” (priority 2007, published 2010).

The molecules below were run against T1, human platelet PDE3 (Homo sapiens, UniProt Q14432) (assay: In vitro inhibition of PDE3 phosphodiesterases (platelet extract, [3H]cAMP SPA)). Conditions: cAMP as substrate.
T1 construct: tissue AllCells, LLC PB027; host or cells: human platelets, 70,000 g supernatant of sonicated lysate
T1 sequence (Q14432 whole entry): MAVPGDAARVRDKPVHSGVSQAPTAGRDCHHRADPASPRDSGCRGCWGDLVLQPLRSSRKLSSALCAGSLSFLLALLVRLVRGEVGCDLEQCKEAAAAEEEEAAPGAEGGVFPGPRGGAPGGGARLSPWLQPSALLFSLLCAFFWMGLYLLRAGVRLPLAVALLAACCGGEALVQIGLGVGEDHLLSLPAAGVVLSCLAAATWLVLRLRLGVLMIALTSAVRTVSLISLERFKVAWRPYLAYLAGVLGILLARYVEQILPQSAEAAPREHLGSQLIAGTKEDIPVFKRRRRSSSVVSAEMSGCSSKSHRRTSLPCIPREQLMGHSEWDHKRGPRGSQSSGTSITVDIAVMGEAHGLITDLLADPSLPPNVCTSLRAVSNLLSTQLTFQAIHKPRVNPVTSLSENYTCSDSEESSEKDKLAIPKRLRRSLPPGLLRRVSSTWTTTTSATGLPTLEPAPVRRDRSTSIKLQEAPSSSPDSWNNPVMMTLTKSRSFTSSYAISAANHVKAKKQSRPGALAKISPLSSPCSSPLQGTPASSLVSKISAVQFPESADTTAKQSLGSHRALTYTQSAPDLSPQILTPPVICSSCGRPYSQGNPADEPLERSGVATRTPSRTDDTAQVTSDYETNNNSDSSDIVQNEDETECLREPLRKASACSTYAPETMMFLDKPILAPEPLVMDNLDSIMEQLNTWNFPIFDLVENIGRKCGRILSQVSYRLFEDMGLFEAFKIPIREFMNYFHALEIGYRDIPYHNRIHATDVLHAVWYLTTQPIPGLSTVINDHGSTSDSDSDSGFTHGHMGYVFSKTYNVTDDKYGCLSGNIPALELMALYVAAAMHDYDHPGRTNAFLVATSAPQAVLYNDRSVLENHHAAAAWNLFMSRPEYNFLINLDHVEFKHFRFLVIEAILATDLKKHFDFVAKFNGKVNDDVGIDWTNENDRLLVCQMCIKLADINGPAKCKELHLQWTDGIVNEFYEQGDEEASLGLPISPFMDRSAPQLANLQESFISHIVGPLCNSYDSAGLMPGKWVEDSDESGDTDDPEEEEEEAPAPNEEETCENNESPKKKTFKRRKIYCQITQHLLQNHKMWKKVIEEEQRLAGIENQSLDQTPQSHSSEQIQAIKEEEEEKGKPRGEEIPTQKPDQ
Format: biochemical
Description: Compounds of the invention were evaluated for inhibitory activity against human platelet PDE3 to ascertain PDE3 inhibition. The PDE3 assay was performed using platelet cell extract as described above in Biological Example 1 for the PDE4 assay. Platelets are known contain PDE's 2, 3 and 5. However […] utilize cGMP, so in an assay with cAMP as a substrate they are not detected.
Human platelet cytoplasmic extracts were prepared by modified method of Keller et al. Human platelets (AllCells, LLC; Cat. No. PB027) were sonicated in supplemented lysis buffer. Supplemented lysis buffer consisted of 20 mM Tris, 1 mM EDTA, 1 mM DTT, 0.25 M sucrose, 1 mM benzamidine, 1 μg/mL Leupeptin, 1 μM Pepstatin, and 0.1 mM PMSF, pH 7.5. The platelet lysates were centrifuged at 70,000 g for 30 minutes at 4° C. The supernatants were aliquoted and stored at −80° C.
Reactions were performed in duplicate by the addition of 10 μL PDE3 lysate to 20 μL of assay mix and 20 μL of test compounds in Isoplates (Wallac) for 30 minutes, at 37° C. […] The plate was sealed, shaken for 1 minute and then allowed to settle 30 minutes and the cpm determined using a Wallac Micobeta.
PDE3 enzyme was added in quantities such that less than 15% of substrate was consumed (linear assay conditions).
With `COc1ccc(C2CNC(=O)C2)cc1OC1CCCC1` (stereo not drawn) [rolipram] the “inhibition of PDE3 (assay specificity control)” value was “without effect”. In the case of `COc1cc2c(cc1OC)-c1c/c(=N\c3c(C)cc(C)cc3C)n(C)c(=O)n1CC2` [trequinsin], the “inhibition of PDE3 (assay specificity control)” value is reported as “potent inhibitor”.

These molecules were tested against PDE4 enzyme (U937 lysate or recombinant hPDE4) (assay: In vitro inhibition of PDE4 phosphodiesterases ([3H]cAMP SPA enzyme assay, Method A)). Conditions: Biological Example 1, Method A.
Format: biochemical, human
Description: PDE4 U937 cytoplasmic extracts were prepared by a modified procedure of the assay described in MacKenzie, S. J. and Houslay, M. D., “Action of rolipram on specific PDE4 cAMP phosphodiesterase isoforms and on the phosphorylation of cAMP-response-element-binding protein (CREB) and p38 mitogen-activated protein (MAP) kinase in U937 monocytic cells”, Biochem J. (2000), 347(Pt 2):571-8, by lysis of U937 cells (ATCC: Catalogue No. CRL-159) in M-PER Lysis buffer (Pierce) containing 10% protease inhibitor cocktail (Sigma). The cell lysates were then centrifuged at 30,000 rpm for 15 minutes at 4° C. The supernatants were aliquoted and stored at −80° C.
An alternative source of PDE4 enzymes was from recombinant human PDE4 obtained from baculovirus-SF9 cells expression system. cDNA containing PDE4D1 was cloned into a baculovirus vector, insect cells (SF9) were then infected and cells cultured to express the PDE4 protein. The cells were lysed and used directly in assay or partially purified using standard procedures. The process can be used for other PDE4 and PDE enzymes.
Compounds of the invention were evaluated for inhibitory activity against PDE4 enzymes by the following assay Method A or B.
PDE4 assay based on modified procedure of Phosphodiesterase [^3H]cAMP SPA Enzyme Assay (Amersham Biosciences, code TRKQ 7090). In this assay, PDE4 enzymes converts [^3H]cAMP to [^3H]5′-AMP. The assay is quenched by the addition of SPA yttrium silicate beads which preferentially bind linear nucleotides over cyclic nucleotides in the presence of zinc sulphate.
Reactions were performed in duplicate by the addition of 10 μl PDE4 enzyme (U937 lysate or recombinant hPDE4) to 20 μL of assay mix and 20 μL of test compounds in Isoplates (Wallac) for 30 minutes, at 37° C. The final assay mixture contained: 50 mM Tris (pH 7.5), 8.3 mM MgCl2, 1.7 mM EGTA and [^3H]cAMP (0.025 μCi) (Amersham). Assay was terminated by addition 25 μL SPA beads. The plate was sealed, shaken for 1 minute and then allowed to settle 30 minutes and the cpm determined using a Wallac Micobeta.
PDE4 enzyme was added in quantities such that less than 15% of substrate was consumed (linear assay conditions).
Work on `COc1ccc([C@H]2CNC(=O)[C@@H](Cc3ccc(OCC(N)=O)cc3)C2)cc1OC1CCCC1` [2-(4-(((3R,5S)-5-(3-(cyclopentyloxy)-4-methoxyphenyl)-2-oxopiperidin-3-yl)methyl)phenoxy)acetamide] yielded an IC50 of 1340 nM. `COc1ccc([C@@H]2C[C@H](Cc3cccc(C)c3)C(=O)N(C(C)=O)C2)cc1OC1CCCC1` [(3R,5S)-1-acetyl-5-(3-(cyclopentyloxy)-4-methoxyphenyl)-3-(3-methylbenzyl)piperidin-2-one] was tested, and the IC50 was 1100 nM. Molecule `COc1ccc([C@H]2CNC(=O)[C@@H](Cc3cccc(OCc4ccccc4)c3)C2)cc1OC1CCCC1` [(3R,5S)-3-(3-(benzyloxy)benzyl)-5-(3-(cyclopentyloxy)-4-methoxyphenyl)piperidin-2-one] has an IC50 of 189 nM. Work on `COc1ccc([C@@H]2C[C@H](Cc3cccc(C)c3)C(=O)N(CC(C)C)C2)cc1OC1CCCC1` [(3R,5S)-5-(3-(cyclopentyloxy)-4-methoxyphenyl)-1-isobutyl-3-(3-methylbenzyl)-piperidin-2-one] yielded an IC50 of 6780 nM. `COc1ccc([C@H]2CNC(=O)[C@H](CCCCCc3ccccc3)C2)cc1OC1CCCC1` [(3R,5S)-5-(3-(cyclopentyloxy)-4-methoxyphenyl)-3-(5-phenylpentyl)piperidin-2-one] showed an IC50 of 578 nM. Molecule `COc1ccc([C@H]2CNC(=O)[C@H](Cc3ccc(F)c(F)c3)C2)cc1OC1CCCC1` [(3S,5S)-5-(3-(cyclopentyloxy)-4-methoxyphenyl)-3-(3,4-difluorobenzyl)piperidin-2-one] has an IC50 of 101 nM. With `CCCNc1cccc(C[C@@H]2C[C@@H](c3ccc(OC)c(OC4CCCC4)c3)CNC2=O)c1` [(3S,5S)-5-(3-(cyclopentyloxy)-4-methoxyphenyl)-3-(3-(propylamino)benzyl)-piperidin-2-one] the IC50 was 604 nM. `COc1ccc([C@H]2CNC(=O)[C@H](Cc3ccc(Oc4ccccc4)cc3)C2)cc1OC1CCCC1` [(3S,5S)-5-(3-(cyclopentyloxy)-4-methoxyphenyl)-3-(4-phenoxybenzyl)piperidin-2-one] was tested, and the IC50 was 457 nM. Molecule `COc1cc(CC2C[C@@H](c3ccc(OC)c(OC4CCCC4)c3)CNC2=O)ccc1OC1CCCC1` (stereo partly drawn) [(5S)-3-(4-(cyclopentyloxy)-3-methoxybenzyl)-5-(3-(cyclopentyloxy)-4-methoxyphenyl)piperidin-2-one] has an IC50 of 379 nM. Molecule `COc1cc(CC2C[C@@H](c3ccc(OC)c(-c4ccccc4)c3)CNC2=O)ccc1OC1CCCC1` (stereo partly drawn) [(5S)-3-(4-(cyclopentyloxy)-3-methoxybenzyl)-5-(6-methoxybiphenyl-3-yl)piperidin-2-one] has an IC50 of 519 nM. `CCCCCCCOc1cc([C@H]2CNC(=O)C(Cc3ccccc3)C2)ccc1OC` (stereo partly drawn) [(5S)-3-benzyl-5-(3-(heptyloxy)-4-methoxyphenyl)piperidin-2-one] showed an IC50 of 1280 nM. In the case of `COc1ccc([C@H]2CNC(=O)C(C(C)c3ccccc3)C2)cc1OC1CCCC1` (stereo partly drawn) [(5S)-5-(3-(cyclopentyloxy)-4-methoxyphenyl)-3-(1-phenylethyl)piperidin-2-one], the IC50 is reported as 1040 nM. `CCOc1cc([C@H]2CNC(=O)C(Cc3ccc(F)cc3)(Cc3ccc(F)cc3)C2)ccc1OC` [(S)-5-(3-ethoxy-4-methoxyphenyl)-3,3-bis(4-fluorobenzyl)piperidin-2-one] gave an IC50 of 5080 nM.
